Series [1] in a line: Cell toxicity (CC50) in EV71 assay. The conditions noted are these: EV71 CC50.
Another series has as its system HeLa S3 cells. Kind of series: Cell toxicity (CC50) in HRV assay. The conditions noted are these: human.
Series [2] can be described thus: Cell toxicity (CC50) in HRV assay. Particulars: human, HRV CC50.
The nature of series [3]: Cell toxicity (CC50) in EV68 assay. The conditions noted are these: EV68 CC50.
The next series deals with EV71. Briefly: EV71 antiviral assay (EC50). It is filed as cell-based, Enterovirus 71.
Another series relates to HRV. Briefly: Rhinovirus antiviral assay (EC50). It is filed as cell-based. The conditions noted are these: Human rhinovirus sp.
Another series concerns EV68. Briefly: EV68 antiviral assay (EC50). It is filed as cell-based.
The subject of the next series is HCV. Kind of series: Anti-HCV assay (EC50). It is filed as cell-based. The conditions noted are these: Hepatitis C virus, read-out: HCV EC50. As for the experimental part:
Anti-HCV assay: Anti-HCV assays are performed as described by Cho et al. “Identification of a class of HCV inhibitors directed against the nonstructural protein NS4B.” Sci. Transl. Med. 2011; 2(15):15ra6.

The next series relates to cells (EV71 assay). Briefly: Cell toxicity (CC50) in EV71 assay.
A short description of series [4]: Caco-2 permeability assay. In kind it is in vitro ADME. Particulars: human, read-out: Caco2 Papp × 1e−6 cm/s. As for the experimental part:
Compounds of interest were tested in a variety of cell-based assays for antiviral activity.

A short description of series [5]: Microsomal stability, human liver microsomes. It is filed as in vitro ADME.
Series [6] is described as follows: Microsomal stability, mouse liver microsomes. In kind it is in vitro ADME.

Values joined by “and” are separate entries in the source; they are usually repeats but may differ in a detail not shown here. Equal entries are not always repeated. Where two headings read alike, the source gives them in different places.

As to `COc1ccc(-c2sc(NC(C)(C)c3ccccc3)nc2C)cc1S(=O)(=O)NC1CCN(S(C)(=O)=O)CC1` [Compound S-57], the CC50 in series [1] stood at 96.1 µM; in the series with HeLa S3 cells, 95 µM; in [2] it was 95.2 µM; in series [3] it was 100 µM. Besides, the concentration for a half-maximal effect (EC50) in the series with EV71 (Enterovirus A, EV71) is 0.0009 µM; with HRV, 0.0009 µM; with EV68 it was 0.001 µM; with HCV, 0.0009 µM.

For the compound `COc1ccc(-c2sc(NC(C)(C)c3ccccc3)nc2C)cc1S(=O)(=O)Nc1ccc(O)cc1` [Compound S-38], the results for the half-maximal effective concentration (EC50) in the series with HRV and in the series on HCV were 0.0002 µM and 0.0006 µM, respectively.

In the case of `COc1ccc(-c2sc(NC(C)(C)C3CCOCC3)nc2C)cc1S(=O)(=O)Nc1ccc(F)cc1Cl` [Compound S-4], the CC50 in series [1] stood at 36.5 µM; in the series on cells (EV71 assay), 36 µM; in the series on HeLa S3 cells, 17 µM; in [2] it was 17.3 µM. Further, the 50% effective concentration (EC50) in the series with HRV and in the series on HCV was 0.0013 µM each time.

As to `COc1ccc(-c2sc(N[C@@H](C)c3ccccc3)nc2C)cc1S(=O)(=O)Nc1c(C)cccc1F` [Compound S-74], the CC50 in series [1] was 95 µM; in series [2], 95 µM; in series [3], 100 µM. The EC50 is 0.0009 µM in the series on EV71 (Enterovirus A, EV71); 0.0009 µM with HRV; 0.001 µM in the series on EV68.

Regarding `COc1ccc(-c2sc(N[C@H](C)c3ccccc3)nc2C)cc1S(=O)(=O)Nc1c(C)cccc1F` [Compound S-75], the CC50 in [1], in series [2] and in [3] was 100 µM in each case. For the same compound, the EC50 with EV71 (Enterovirus A, EV71) was 0.006 µM; in the series on HRV, 0.022 µM; in the series with EV68 it was 0.013 µM.

For `COc1ccc(-c2sc(NCC3CCOCC3)nc2C)cc1S(=O)(=O)Nc1ccc(F)cc1Cl` [Compound S-77], in series [2], the CC50 is 66 µM. The compound further gave an EC50 in the series with HRV of 0.826 µM.

For `COc1ccc(-c2sc(NC(C)(C)C3CCCCC3)nc2C)cc1S(=O)(=O)Nc1c(C)cccc1F` [Compound S-58], the CC50 in series [1], in [2] and in series [3] was 100 µM throughout. The concentration giving a half-maximal response (EC50) in the series with EV71 is 0.006 µM; in the series with EV71 (Enterovirus A, EV71), 0.0068 µM; with HRV, 0.022 µM; with EV68, 0.0135 µM and 0.013 µM; in the series with HCV, 0.0225 µM.

For the compound `COc1ccc(-c2sc(NC(C)(C)C3CCOCC3)nc2C)cc1S(=O)(=O)NC1CCN(C(=O)OC(C)(C)C)CC1` [Compound S-9], the CC50 in [1] amounted to 69.3 µM; in series [2], 100 µM; in series [3], 100 µM. Besides, the concentration giving a half-maximal response (EC50) came out at 0.0048 µM with EV71 (Enterovirus A, EV71); 0.029 µM with EV68; 0.005 µM in the series with HCV.

For `COc1ccc(-c2sc(NC(C)(C)C3CCOCC3)nc2C)cc1S(=O)(=O)Nc1ncc[nH]1` [Compound S-24], the results for the cytotoxic concentration (CC50) in series [1], in series [2] and in series [3] were 73 µM, 9.62 µM and 13.4 µM, respectively. Further, the EC50 was found to be 0.0046 µM in the series on EV71 (Enterovirus A, EV71); 0.0111 µM with EV68; 0.0037 µM in the series on HCV.

As for `COc1ccc(-c2sc(NC(C)(C)C3CCOCC3)nc2C)cc1S(=O)(=O)Nc1c(C)ncnc1C` [Compound S-17], the 50% cytotoxic concentration (CC50) was found to be 99.9 µM in series [1], 100 µM in series [2] and 100 µM in series [3]. Moreover, the EC50 is 0.0037 µM with EV71 (Enterovirus A, EV71); 0.0255 µM in the series on EV68; 0.0107 µM in the series on HCV.

Consider `COc1ccc(-c2sc(NC(C)(C)C3CCOCC3)nc2C)cc1S(=O)(=O)NC1CCN(C(=O)OC(F)(F)F)CC1` [Compound S-20], for which the results for the CC50 in series [1], in series [2] and in series [3] were 18.9 µM, 49.4 µM and 51.6 µM, respectively. For the same compound, the half-maximal effective concentration (EC50) was determined as 0.0036 µM with EV71 (Enterovirus A, EV71); 0.0507 µM with EV68; 0.0257 µM in the series with HCV.

As for `COc1ccc(-c2sc(NC(C)(C)c3ncccn3)nc2C)cc1S(=O)(=O)Nc1ccccc1C(F)(F)F` [Compound S-35], the CC50 in [1], in [2] and in series [3] was 100 µM throughout. The 50% effective concentration (EC50) is 0.0001 µM with EV71 (Enterovirus A, EV71); 0.0006 µM with EV68; 0.0002 µM in the series on HCV.

Turning to `COc1ccc(-c2sc(NC(C)(C)C3CCOCC3)nc2C)cc1S(=O)(=O)Nc1cncnc1C` [Compound S-23], the 50% cytotoxic concentration (CC50) in [1] was found to be 100 µM; in series [2] it was 100 µM; in [3], 66.1 µM. The concentration for a half-maximal effect (EC50) is 0.049 µM in the series with EV71 (Enterovirus A, EV71); 0.796 µM in the series with EV68; 0.138 µM with HCV.

As to `COc1ccc(-c2sc(NC(C)(C)C3CCOCC3)nc2C)cc1S(=O)(=O)NC1CCN(S(C)(=O)=O)CC1` [Compound S-13], the cytotoxic concentration (CC50) in series [1] stood at 99.4 µM; in series [2], 102 µM; in series [3] it was 102 µM. Further, the half-maximal effective concentration (EC50) came to 0.0013 µM in the series on EV71 (Enterovirus A, EV71); 0.0391 µM in the series on EV68; 0.0081 µM in the series on HCV.

As to `COc1ccc(-c2sc(NC(C)(C)C3CCOCC3)nc2C)cc1S(=O)(=O)Nc1c(C)cc(F)cc1F` [Compound S-28], the results for the CC50 in series [1], in series [2] and in series [3] were 100 µM, 87.4 µM and 77.6 µM, respectively. For the same compound, the EC50 with EV71 (Enterovirus A, EV71) amounted to 0.0042 µM; in the series with EV68, 0.0091 µM; in the series with HCV it was 0.0049 µM.

`COc1ccc(-c2sc(NC(C)(C)c3ccccc3)nc2C)cc1S(=O)(=O)Nc1ccncc1C(F)(F)F` [Compound S-44]: the half-maximal cytotoxic concentration (CC50) in series [1] worked out at 18.2 µM; in series [2], 32.1 µM; in series [3], 33.5 µM. Moreover, the EC50 in the series with EV71 (Enterovirus A, EV71) came out at 0.0035 µM; in the series on EV68, 1.99 µM; with HCV, 0.0306 µM.

As to `COc1ccc(-c2sc(NC(C)(C)C3CCOCC3)nc2C)cc1S(=O)(=O)Nc1c(C)cccc1F` [Compound S-1], the values for the half-maximal cytotoxic concentration (CC50) in series [1], in series [2] and in series [3] were 100 µM, 15 µM and 18.2 µM, respectively. Also, the Papp in series [4] amounted to 4 ×10⁻⁶ cm/s. The EC50 with EV71 (Enterovirus A, EV71) is 0.0002 µM; in the series with HRV, 0.0005 µM; in the series on EV68 it was 0.0024 µM and 0.002 µM; in the series on HCV, 0.005 µM. The half-life turned out to be 6 min in [5] (read-out: HLM/MLM (t ½ min): HLM); 68 min in series [5] (with ritonavir (concentration not stated), + Ritonavir, read-out: HLM/MLM (t ½ min) + Ritonavir: HLM); 8 min in series [6] (read-out: HLM/MLM (t ½ min): MLM); 50 min in [6] (with ritonavir (concentration not stated), + Ritonavir, read-out: HLM/MLM (t ½ min) + Ritonavir: MLM).

With `COc1ccc(-c2sc(NC(C)(C)C3CCOCC3)nc2C)cc1S(=O)(=O)Nc1nccn1C` [Compound S-29], the CC50 in series [1] amounted to 100 µM; in [2], 98.7 µM; in series [3] it was 102 µM. In addition, the EC50 in the series with EV71 (Enterovirus A, EV71) turned out to be 0.0098 µM; with EV68, 0.0391 µM; in the series on HCV, 0.0057 µM.

With `COc1ccc(-c2sc(NC(C)(C)C3CCNCC3)nc2C)cc1S(=O)(=O)Nc1cccnc1C` [Compound S-53], the figures for the CC50 in series [1], in series [2] and in series [3] were 47.9 µM, 100 µM and 100 µM, respectively. The EC50 with EV71 (Enterovirus A, EV71) is 3.56 µM; in the series on EV68, 12.3 µM; in the series on HCV it was 12.4 µM.

Source of the values: US20250326725A1, “PI4-Kinase Inhibitors and Methods of Using the Same” (The Board of Trustees of the Leland Stanford Junior …, priority 2019, published 2025).
